These results are taken from US9717714B2, “Spirocyclic CETP inhibitors” (Merck Sharp & Dohme Corp., priority 2012, dated 2017).

One assay addresses CETP (Homo sapiens (Human), UniProt P11597). The assay can be described thus: Scintillation Proximity Assay (SPA) for CETP activity. To be noted: 15 nM CETP. The format is biochemical. Here is the method: Protocol: Scintillation Proximity Assay (SPA) for CETP Activity
First, low density lipoprotein (LDL) (Meridian) was biotinylated by incubating LDL with biotin for 1 hour on ice, after which it was dialyzed to remove free biotin. Then compounds at varying concentrations were incubated with 15 nM CETP (reagent production group, In Vitro Pharmacology, MRL Rahway) and 50 ug/ml of the biotinylated LDL in 50 mM HEPES, 150 mM NaCl, pH 7.4, for 1 hour at 37° C. The reaction was started by adding ^3H-cholesterol ester high density lipoprotein (HDL) (American Radiochemicals Corp) at a concentration of ˜0.6 nM. The reaction proceeded for 2 hours at 37° C., after which time it was quenched by the addition of 12% acetic acid. PVT streptavadin-coated scintillation proximity beads, which had been brought to room temperature, were then added at a concentration of 4 mg/ml. The assay was then mixed and counted after one half hour in a Microbeta plate reader.
(In general: SPA uses beads or plates that emit light when radiolabelled molecules are held near them.)

The conditions of assay [1]: patients on baseline statin therapy, compared with just a statin; cited from earlier work.
Assay [2] concerns the target endogenous CETP from serum (Homo sapiens (Human), UniProt P11597). The assay can be described thus: RTA assay in 95% human serum (CETP-catalyzed CE and TG transfer, endogenous CETP). Conditions: generally RTA assay in 95% human serum; read-out: IC50. The format is biochemical. From the text:
In Vitro Radioactive Assays of CETP-Catalyzed CE and TG Transfer (RTA Assay)
Reagents and sources are: [3H] cholesteryl oleate (GE #TRK.886), [3H] Triolein (Perkin-Elmer NET-431), Butylated hydroxyl toluene (Aldrich, #D4740-4), DOPC (Sigma, #P6354), Sodium Bromide (Fisher scientific #S255-500), PEG 8000 (Fisher, #BP233-1), and human HDL (Intracel Corp #RP-036).
Both assays measure the transfer of [3H] cholesteryl oleate or [3H] triolein from exogenous LDL to HDL.
Radiolabeled donor particles are generated by first combining 100 μl of 200 μM butylated hydroxyl toluene in CHCl3, 216 μL of 21.57 mM DOPC in EtOH, and either 500 μCi [3H]-triolein (Perkin Elmer #NET-431) or 500 μCi [3H]-cholesteryl oleate (GE #TRK886) in a glass tube. Reagents are mixed, dried under nitrogen, and then resuspended in 2 mL of 50 mM Tris, 27 μM EDTA at pH 7.4. After a brief vortex, the solution is sonicated until clear and mixed with 20 mL of fresh human serum. The mixture is incubated overnight at 37° C. The [3H] labeled LDL substrate is separated at 1.063 g/ml density by sequential ultracentrifugal flotation in NaBr according to the method of Havel, Eder, et al., 1955, and Chapman, Goldstein, et al., 1981. Once isolated the particles are dialyzed 3× in CETP buffer (50 mM Tris, pH 7.4, 100 mM NaCl, 1 mM EDTA). Human HDL is purchased from Intracel and used as the acceptor particles.
Transfer assays are performed in a 96-well v-bottom polypropylene plate. For the RTA using recombinant CETP (2% RTA), an assay cocktail is prepared with the final concentrations 128 μg/mL HDL, 20 nM rCETP, 2% human serum, and 1×CETP buffer. 1 μL of each test compound diluted in DMSO is added to 47 μL of assay cocktail per well and incubated at 37° C. for 1 hour. To initiate the transfer reaction, 2 μL radiolabeled LDL is added. After an additional 60 min of incubation at 37° C., the transfer action is terminated by precipitation of LDL with an equal volume of 20% W/V PEG 8000. The plates are centrifuged at 2000 rpm for 30 minutes at 4° C. A 40 μL aliquot of the HDL-containing supernatant is transferred to a Packard Optiplate™ with 200 μL of MicroScint™ 20. After mixing, plates are counted by liquid scintillation. Counts present in the supernatant for blanks (wells containing only HDL acceptor, CETP buffer and DMSO) are subtracted from those containing test compounds and used to correct for non-specific transfer.
For the transfer assay using endogenous CETP from serum (95% RTA), the same procedure is used except that human serum is added such that a final concentration of serum of 95% of the total assay volume is achieved, yielding a concentration of approximately 15 nM endogenous CETP in the assay. This is then combined with HDL and CETP buffer and the reaction proceeds as above and is terminated as described.
Comparison of the counts of samples with inhibitors to an uninhibited (DMSO only) positive control yield a percent inhibition. A plot of percent inhibition vs. log of inhibitor concentration, fit to a Sigmoidal 4 parameter equation is used to calculate IC50.
Starting materials are commercially available or are made using known procedures or as shown below. The examples may be synthesized according to the general schemes provided below and through the synthetic intermediates that are described. […] When compounds of Formula I or Formula II are mentioned herein, such compounds include compounds defined generically by Formula I or II and also the specific examples disclosed herein.

Structures are written as SMILES.

Chain of CETP (P11597 18-493): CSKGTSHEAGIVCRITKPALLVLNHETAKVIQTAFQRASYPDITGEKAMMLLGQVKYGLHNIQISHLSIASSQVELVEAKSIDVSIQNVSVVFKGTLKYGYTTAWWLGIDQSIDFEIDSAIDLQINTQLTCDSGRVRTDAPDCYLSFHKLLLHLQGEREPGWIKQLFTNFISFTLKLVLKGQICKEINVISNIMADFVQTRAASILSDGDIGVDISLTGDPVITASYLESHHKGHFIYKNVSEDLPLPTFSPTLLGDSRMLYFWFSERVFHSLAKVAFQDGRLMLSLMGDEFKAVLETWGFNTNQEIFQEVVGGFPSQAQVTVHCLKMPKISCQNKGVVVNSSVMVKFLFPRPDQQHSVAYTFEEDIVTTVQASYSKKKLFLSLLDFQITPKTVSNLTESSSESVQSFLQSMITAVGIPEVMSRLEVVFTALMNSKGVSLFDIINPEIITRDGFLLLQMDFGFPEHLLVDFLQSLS
Chain of endogenous CETP from serum (P11597 18-493 limits assumed): as the sequence (P11597 18-493) above

One may read the IC50 as the point on the concentration scale where inhibition reaches its midpoint. Consider `COc1ccc(-c2ccc(C(=O)O)cc2C)cc1-c1cnc(N(C)C)nc1CN1C(=O)O[C@@H](c2cc(C(F)(F)F)cc(C(F)(F)F)c2)C12CC2` [Example 8, 3′-[4-({(7S)-7-[3,5-bis(trifluoromethyl)phenyl]-5-oxo-6-oxa-4-azaspiro[2.4]hept-4-yl}methyl)-2-(dimethylamino)pyrimidin-5-yl]-4′-methoxy-2-methylbiphenyl-4-carboxylic acid], for which 6.3 µM corresponded to half-maximal inhibition against CETP (IC50).

On to `COc1cc(F)c(C(C)C)cc1-c1ccc(C(F)(F)F)cc1CN1C(=O)O[C@H](c2cc(C(F)(F)F)cc(C(F)(F)F)c2)[C@@H]1C` [anacetrapib], for which, in assay [1], the “decrease of LDL-C” value was 40% and the “increase of HDL-C” value was 138%.

As for `COc1ccc(-c2ccc(C(=O)O)cc2C)cc1-c1cnc(N(C)S(C)(=O)=O)nc1CN1C(=O)O[C@H](c2cc(C(F)(F)F)cc(C(F)(F)F)c2)C12CCC2` [Example 14, 3′-[4-({(8R)-8-[3,5-bis(trifluoromethyl)phenyl]-6-oxo-7-oxa-5-azaspiro[3.4]oct-5-yl}methyl)-2-[methyl (methylsulfonyl)amino]pyrimidin-5-yl}-4′-methoxy-2-methylbiphenyl-4-carboxylic acid], in assay [2], the IC50 came to 0.561 µM.
